Measured values reported in ChEMBL document CHEMBL4052588, “Design of a Biased Potent Small Molecule Inhibitor of the Bromodomain and PHD Finger-Containing (BRPF) Proteins Suitable for Cellular and in Vivo Studies” (J Med Chem, 2017).

Assays:
[1] = target: Bromodomain-containing protein 4 (Homo sapiens, UniProt O60885)
[2] = target: T1, Bromodomain-containing protein 9 (Homo sapiens, UniProt Q9H8M2); experiment: Inhibition of human His tagged BRD9 incubated for 30 mins followed by addition of biotinylated peptide and further incubation for 30 mins measured by AlphaScreen assay
T1 sequence (Q9H8M2 whole entry): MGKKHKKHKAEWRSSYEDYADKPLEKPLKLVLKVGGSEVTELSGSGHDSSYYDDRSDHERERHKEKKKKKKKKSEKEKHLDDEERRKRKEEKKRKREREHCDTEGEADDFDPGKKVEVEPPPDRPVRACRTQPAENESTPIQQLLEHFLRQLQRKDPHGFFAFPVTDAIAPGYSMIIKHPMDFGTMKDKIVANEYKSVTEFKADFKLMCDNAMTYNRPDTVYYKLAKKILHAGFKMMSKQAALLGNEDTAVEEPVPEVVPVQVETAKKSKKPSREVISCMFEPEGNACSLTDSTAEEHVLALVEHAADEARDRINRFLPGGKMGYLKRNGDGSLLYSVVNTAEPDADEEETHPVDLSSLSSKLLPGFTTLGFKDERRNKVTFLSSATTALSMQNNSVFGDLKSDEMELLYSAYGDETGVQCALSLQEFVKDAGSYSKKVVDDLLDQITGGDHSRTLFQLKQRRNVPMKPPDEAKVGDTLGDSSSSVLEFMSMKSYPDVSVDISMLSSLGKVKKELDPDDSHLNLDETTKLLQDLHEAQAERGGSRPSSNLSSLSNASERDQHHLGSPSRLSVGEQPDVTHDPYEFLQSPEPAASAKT

[3] = target: ATPase family AAA domain-containing protein 2B (Homo sapiens, UniProt Q9ULI0); experiment: Inhibition of human ATAD2B expressed in Escherichia coli BL21 after 1 hr by BROMOscan assay
[4] = target: Bromodomain-containing protein 7 (Homo sapiens, UniProt Q9NPI1); experiment: Inhibition of human BRD7 expressed in Escherichia coli BL21 after 1 hr by BROMOscan assay
[5] = target: T2, ATPase family AAA domain-containing protein 2 (Homo sapiens, UniProt Q6PL18); experiment: Inhibition of human ATAD2A expressed in Escherichia coli BL21 after 1 hr by BROMOscan assay
T2 sequence (Q6PL18 whole entry): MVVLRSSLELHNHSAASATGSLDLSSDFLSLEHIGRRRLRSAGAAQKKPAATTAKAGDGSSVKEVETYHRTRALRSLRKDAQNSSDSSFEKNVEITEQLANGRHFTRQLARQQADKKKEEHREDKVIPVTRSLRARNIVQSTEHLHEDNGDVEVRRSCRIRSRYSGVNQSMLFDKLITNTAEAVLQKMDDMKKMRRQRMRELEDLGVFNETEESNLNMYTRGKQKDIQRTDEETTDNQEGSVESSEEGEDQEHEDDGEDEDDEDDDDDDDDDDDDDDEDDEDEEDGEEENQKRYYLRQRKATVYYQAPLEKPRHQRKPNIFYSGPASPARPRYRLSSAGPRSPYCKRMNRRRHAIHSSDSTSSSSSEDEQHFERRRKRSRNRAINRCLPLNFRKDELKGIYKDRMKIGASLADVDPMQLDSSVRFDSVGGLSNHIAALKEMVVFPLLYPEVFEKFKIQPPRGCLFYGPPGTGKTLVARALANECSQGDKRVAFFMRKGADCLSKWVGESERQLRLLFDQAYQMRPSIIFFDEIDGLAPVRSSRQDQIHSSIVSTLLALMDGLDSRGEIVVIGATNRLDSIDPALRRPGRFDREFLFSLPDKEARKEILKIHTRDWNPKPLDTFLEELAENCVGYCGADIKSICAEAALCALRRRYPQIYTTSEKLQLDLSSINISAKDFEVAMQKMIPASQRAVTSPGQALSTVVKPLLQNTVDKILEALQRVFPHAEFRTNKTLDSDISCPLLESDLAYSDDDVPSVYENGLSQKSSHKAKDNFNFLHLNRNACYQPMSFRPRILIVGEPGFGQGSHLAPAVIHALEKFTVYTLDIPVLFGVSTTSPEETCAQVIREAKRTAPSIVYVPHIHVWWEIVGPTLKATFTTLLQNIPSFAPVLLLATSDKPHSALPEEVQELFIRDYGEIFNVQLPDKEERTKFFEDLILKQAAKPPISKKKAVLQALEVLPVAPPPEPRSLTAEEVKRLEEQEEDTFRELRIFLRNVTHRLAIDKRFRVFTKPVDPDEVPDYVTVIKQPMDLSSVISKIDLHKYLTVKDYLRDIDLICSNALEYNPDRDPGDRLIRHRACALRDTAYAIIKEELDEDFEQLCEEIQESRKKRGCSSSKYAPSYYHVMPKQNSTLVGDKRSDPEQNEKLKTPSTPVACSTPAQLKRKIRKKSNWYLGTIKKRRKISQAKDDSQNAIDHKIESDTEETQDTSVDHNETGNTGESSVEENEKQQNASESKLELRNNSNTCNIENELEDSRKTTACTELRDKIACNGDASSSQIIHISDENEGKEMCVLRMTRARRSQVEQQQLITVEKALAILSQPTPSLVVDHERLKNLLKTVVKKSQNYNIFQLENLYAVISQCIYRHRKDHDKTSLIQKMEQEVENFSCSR

Chain of Bromodomain-containing protein 7 (Q9NPI1 whole entry, the tested form may be a part): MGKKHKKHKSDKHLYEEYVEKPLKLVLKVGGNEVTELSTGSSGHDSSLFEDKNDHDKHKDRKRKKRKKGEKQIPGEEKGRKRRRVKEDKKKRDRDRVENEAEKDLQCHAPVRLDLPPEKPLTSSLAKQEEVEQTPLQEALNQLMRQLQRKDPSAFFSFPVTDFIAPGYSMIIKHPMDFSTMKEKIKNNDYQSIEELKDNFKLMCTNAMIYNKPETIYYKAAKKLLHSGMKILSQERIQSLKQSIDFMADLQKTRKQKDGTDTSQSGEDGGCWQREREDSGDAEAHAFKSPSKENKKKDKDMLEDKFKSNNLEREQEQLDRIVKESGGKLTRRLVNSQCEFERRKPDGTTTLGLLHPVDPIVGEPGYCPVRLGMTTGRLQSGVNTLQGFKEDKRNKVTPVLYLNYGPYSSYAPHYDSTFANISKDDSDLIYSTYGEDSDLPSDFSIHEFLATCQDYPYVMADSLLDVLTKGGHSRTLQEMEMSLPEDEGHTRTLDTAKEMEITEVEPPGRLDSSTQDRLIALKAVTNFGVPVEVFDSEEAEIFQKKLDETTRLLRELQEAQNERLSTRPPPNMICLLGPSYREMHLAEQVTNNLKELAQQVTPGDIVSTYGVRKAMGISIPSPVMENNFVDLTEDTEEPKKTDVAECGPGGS
Chain of ATPase family AAA domain-containing protein 2B (Q9ULI0 whole entry, the tested form may be a part): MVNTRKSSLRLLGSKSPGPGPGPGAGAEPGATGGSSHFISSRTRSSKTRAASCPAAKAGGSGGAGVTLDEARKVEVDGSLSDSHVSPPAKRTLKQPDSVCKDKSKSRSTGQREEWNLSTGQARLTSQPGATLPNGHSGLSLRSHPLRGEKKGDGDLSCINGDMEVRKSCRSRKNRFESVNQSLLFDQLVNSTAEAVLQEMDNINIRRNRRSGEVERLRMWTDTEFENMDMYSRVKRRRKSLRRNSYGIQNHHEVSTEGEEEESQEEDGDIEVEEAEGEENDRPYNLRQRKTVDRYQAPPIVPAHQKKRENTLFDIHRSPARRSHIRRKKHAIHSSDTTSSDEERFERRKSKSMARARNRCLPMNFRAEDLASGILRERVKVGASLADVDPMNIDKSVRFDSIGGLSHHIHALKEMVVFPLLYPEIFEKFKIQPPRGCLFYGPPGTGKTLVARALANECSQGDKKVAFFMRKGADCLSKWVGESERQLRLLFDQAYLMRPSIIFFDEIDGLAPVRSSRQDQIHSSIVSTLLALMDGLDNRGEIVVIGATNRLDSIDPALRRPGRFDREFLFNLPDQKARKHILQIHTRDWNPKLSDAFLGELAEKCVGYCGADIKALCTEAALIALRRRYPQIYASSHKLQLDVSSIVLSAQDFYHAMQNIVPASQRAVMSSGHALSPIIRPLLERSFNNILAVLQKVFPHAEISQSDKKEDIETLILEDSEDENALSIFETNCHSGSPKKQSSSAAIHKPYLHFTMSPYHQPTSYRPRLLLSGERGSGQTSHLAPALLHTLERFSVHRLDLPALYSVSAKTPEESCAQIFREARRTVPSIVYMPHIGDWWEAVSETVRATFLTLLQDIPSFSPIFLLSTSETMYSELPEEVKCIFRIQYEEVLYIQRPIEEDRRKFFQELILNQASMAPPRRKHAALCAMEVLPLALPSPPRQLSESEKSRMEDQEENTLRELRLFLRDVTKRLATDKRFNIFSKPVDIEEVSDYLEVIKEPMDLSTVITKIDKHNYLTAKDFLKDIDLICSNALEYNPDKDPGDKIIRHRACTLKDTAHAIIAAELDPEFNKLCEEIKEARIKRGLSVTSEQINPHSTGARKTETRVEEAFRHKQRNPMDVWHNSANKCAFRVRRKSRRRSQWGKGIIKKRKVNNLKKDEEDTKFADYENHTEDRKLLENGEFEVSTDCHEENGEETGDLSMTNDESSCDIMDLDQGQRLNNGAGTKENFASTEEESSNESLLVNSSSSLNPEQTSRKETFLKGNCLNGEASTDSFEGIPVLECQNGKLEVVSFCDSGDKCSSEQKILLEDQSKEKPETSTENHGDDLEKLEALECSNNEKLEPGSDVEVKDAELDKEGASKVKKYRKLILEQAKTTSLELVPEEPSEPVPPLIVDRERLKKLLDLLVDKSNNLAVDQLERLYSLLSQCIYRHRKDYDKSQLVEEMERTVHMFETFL

ΔTm [1] | IC50 [2] | IC50 [3] | IC50 [4] | IC50 [5] | SMILES
0.4 °C |  |  |  |  | Cc1cc(C#N)ccc1S(=O)(=O)Nc1ccc2c(ccc(=O)n2C)c1
0.95 °C | 1.1 µM | > 100 µM | 0.082 µM | > 100 µM | Cc1cc2cc(NS(=O)(=O)c3ccc(C#N)cc3)ccc2n(C)c1=O
 | > 20 µM | > 100 µM | > 100 µM | > 100 µM | CCc1cc2cc(NS(=O)(=O)c3ccc(C#N)cc3)ccc2n(CC)c1=O
